Source: patent publication EP3315495A1, “N,N' -[…], N,N' -DIAR[…] N,N' -DIARY[…] FOR USE IN TREATMENT AND PREVENTION OF INFLAMMATORY DISEASE” (Universität Innsbruck, priority 2016, dated 2018)
“Also recorded” adds a separate entry of the source. Marks after values point to notes of the source that are not given here.

Columns and labels:
sEH [1] = target: T1, sEH (Homo sapiens, UniProt P34913); conditions: result in words
T1 sequence (P34913 1-555): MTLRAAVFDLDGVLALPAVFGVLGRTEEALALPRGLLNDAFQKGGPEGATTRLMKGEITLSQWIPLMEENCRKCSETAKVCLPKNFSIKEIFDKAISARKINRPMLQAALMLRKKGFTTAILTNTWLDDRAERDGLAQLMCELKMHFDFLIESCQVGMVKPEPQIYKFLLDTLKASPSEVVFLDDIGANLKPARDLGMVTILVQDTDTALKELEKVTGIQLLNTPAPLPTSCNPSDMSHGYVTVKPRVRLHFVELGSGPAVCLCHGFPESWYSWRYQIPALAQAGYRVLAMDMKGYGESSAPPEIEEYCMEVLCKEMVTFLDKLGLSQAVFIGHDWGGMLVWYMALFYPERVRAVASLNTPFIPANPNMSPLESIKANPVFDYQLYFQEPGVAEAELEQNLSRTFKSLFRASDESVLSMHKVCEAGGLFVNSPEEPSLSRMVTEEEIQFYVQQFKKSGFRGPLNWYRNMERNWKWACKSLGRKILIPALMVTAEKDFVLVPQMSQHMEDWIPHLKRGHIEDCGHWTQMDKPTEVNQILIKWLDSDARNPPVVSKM
Description: (§1) In brief, sEH was expressed in transfected Sf9-cells. Isolation of sEH from the cell pellet was conducted with a benzylthiosepharose matrix. […] The reaction was stopped with ZnSO4 (0.2 M) after 60 min incubation. […] Inhibitors were tested for self fluorescence. Positive controls were AUDA (12-(3-adamantan-1-yl-ureido)dodecanacid) and DCU (N,N'-dicyclohexylurea) at 10 µM.

[2] = system: 5-LOX product formation in PMNL; assay: 5-LOX product formation in PMNL stimulated with A23187 (cell-based); set-up: species or system human; conditions: for Effect on 5-LOX product formation in PMNL: result in words; for inhibition at 1 µM: read-out: Effect on 5-LOX product formation in PMNL, % inhibition
Description: Briefly, first a cell-based assay allows to determine the inhibition of the 5-LOX product biosynthesis. The cell suspension contained human neutrophils (PMNL) or monocytes, wherein the cells were isolated from buffy coats obtained from healthy donors pooled by gender. An aliquot cell suspension was incubated with the candidate compound for 15 min at 37 °C. The cells are treated with calcium ionophore A23187 to stimulate 5-LOX product formation for further 10 min (37 °C), optionally in presence of various concentrations of AA. The reaction was stopped with 1 mL methanol on ice.
In both assays, product quantification was conducted with RP-HPLC and UV detection after solid phase extraction and addition of 200 ng prostaglandin B1 as internal standard.

FLAP = target: T2, FLAP (Homo sapiens, UniProt P20292); conditions: active = inhibition of product formation in cells without 5-LOX activity in the cell-free assay
T2 sequence (P20292 1-161): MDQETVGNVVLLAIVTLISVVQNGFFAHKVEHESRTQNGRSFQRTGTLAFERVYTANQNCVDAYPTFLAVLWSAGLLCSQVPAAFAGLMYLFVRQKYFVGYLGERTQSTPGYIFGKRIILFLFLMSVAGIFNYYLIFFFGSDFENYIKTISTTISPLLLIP
Description: The enzyme was preincubated for 15 min with the potential inhibitor on ice and subsequently exposed to 2 mM CaCl2 and 20 µM AA for 10 min at 37°C.
Effect on 5-LOX product formation and sEH activity is determined as described above. In case of observed effect on 5-LOX product formation in the cellular assay, 5-LOX activity was investigated with isolated 5-LOX.

sEH [3] = target: T1, sEH; assay: biochemical; conditions: for inhibition at 0.1 µM / inhibition at 1 µM: read-out: Effect on sEH activity, % inhibition
Description: as §1

[4] = system: leukotriene mediated peritonitis; assay: Zymosan-induced peritonitis model in mice; format: in vivo, CD1 male mice; conditions: intraperitoneal, 30 min prior to zymosan
Description: Compound I-12 was evaluated in vivo in a peritonitis model in mice. The experimental protocols were approved by the Animal Care Committee of the University of Naples Federico II, in compliance with Italian regulations on protection of animals used for experimental and other scientific purpose (Ministerial Decree 116/92) as well as with the European Economic Community regulations (Official Journal of E.C. L 358/1 12/18/1986); protocol number: 2014/0018760 27th February 2014. CD1 male mice with an age of six to eight weeks were investigated. The leukotriene mediated peritonitis is induced by injection of 1 mg zymosan in 50 µl saline solution. 30 min prior to induction, the candidate compound was applied as intraperitoneal injection in different concentrations as well as DMSO as negative control and positive controls (MK886, zileuton). Results are given in Table 3, wherein […] and LTB 4 levels are measured as well as vascular permeability (VP) and the cell recruitment in the peritoneal cavity (Cell Rec). Table 3: Results from an in vivo study with a mouse peritonitis model
In Table 3, values in percent indicate the percent inhibition in respect to the vehicle control. Statistical significance is determined via ANOVA Bonferroni, wherein * indicates p<0.05; ** indicates p<0.01; *** indicates p<0.001 vs. vehicle. N indicates the number of investigated mice.

| SMILES | Effect on sEH activity (sEH [1]) | Effect on 5-LOX product formation in PMNL [2] | Effect on FLAP activity (FLAP) | inhibition at 0.1 µM (sEH [3]) [%] | other results |
| --- | --- | --- | --- | --- | --- |
| CCn1c(COc2ccc3ccccc3c2)nc2ccccc21 [Compound I12-1, reference compound] | inactive | inactive | inactive |  |  |
| Cc1cc(OCc2nc3ccccc3s2)ccc1NC(=O)NC1CCCCC1 [Compound I12-2, N-[4-(2-benzothiazolylmethoxy)-2-methylphenyl]-N'-cyclohexyl-urea, reference compound] |  | did not show an effect; also recorded: inactive | did not show an effect; also recorded: inactive | 75 |  |
| Cc1cccc(NC(=O)Nc2ccc(OCc3nc4ccccc4s3)cc2C)c1 [Compound I12-3] |  |  | active | 55 | inhibition at 1 µM ([2]; Homo sapiens, PMNL): 100% |
| Cc1cc(OCc2nc3ccccc3s2)ccc1NC(=O)Nc1cccc2ccccc12 [Compound I12-4] | inactive |  | active |  | inhibition at 1 µM ([2]; Homo sapiens, PMNL): 70% |
| Cc1cc(OCc2nc3ccccc3s2)ccc1NC(=O)c1cccc(F)c1 [Compound I12-5, reference compound] | inactive | inactive | inactive |  |  |
| Cc1cc(OCc2nc3ccccc3s2)ccc1NC(=O)COc1ccc(Cl)cc1Cl [Compound I12-6, reference compound] | inactive | inactive | inactive |  |  |
| CCNC(=O)Nc1ccc(OCc2nc3ccccc3s2)cc1C [Compound I12-7, reference compound] | inactive | inactive | inactive |  |  |
| COc1cc(/C=N/NC(=O)c2ccc(CSc3nc4ccccc4s3)o2)cc(Br)c1O [Compound I12-8, reference compound] |  | inactive | inactive | 30 |  |
| CSc1ccc(N/N=C/c2nc3ccccc3s2)cc1 [Compound I12-9, reference compound] | inactive | inactive | inactive |  |  |
| CC(C)c1ccc(OCc2nc3ccccc3[nH]2)cc1 [Compound I12-10, reference compound] | inactive | inactive | inactive |  |  |
| Cc1cccc(OCC(=O)Nc2ccc(OCc3nc4ccccc4s3)cc2C)c1 [Compound I12-11, reference compound] | did not show sEH inhibition; also recorded: inactive |  | active |  | inhibition at 1 µM ([2]; Homo sapiens, PMNL): 97% |
| Cc1cc(OCc2nc3ccccc3s2)ccc1NC(=O)c1ccc(Cl)cc1 [Compound I12-12, reference compound] | inactive | inactive | inactive |  |  |
| Cc1cccc(OCc2nc3ccccc3s2)c1C [Compound I12-13, reference compound] | inactive | inactive | inactive |  |  |
| COc1cccc(NC(=O)Nc2ccc(CCc3nc4ccccc4[nH]3)cc2)c1 [Compound L1] |  | inactive | inactive | 30 |  |
| O=C(Nc1ccc(CCc2nc3ccccc3[nH]2)cc1)Nc1cccc(Cl)c1 [Compound L2] |  | inactive | inactive | 50 |  |
| O=C(Nc1ccccc1)Nc1ccc(CCc2nc3ccccc3[nH]2)cc1 [Compound L3] |  | inactive | inactive | 30 |  |
| O=C(Nc1ccc(Cl)cc1)Nc1ccc(CCc2nc3ccccc3[nH]2)cc1 [Compound L4] |  | inactive | inactive | 78 |  |
| COc1ccc(NC(=O)Nc2ccc(CCc3nc4ccccc4[nH]3)cc2)cc1 [Compound L5] |  | inactive | inactive | 50 |  |
| O=C(Nc1ccc(F)cc1)Nc1ccc(CCc2nc3ccccc3[nH]2)cc1 [Compound L6] |  | inactive | inactive | 55 |  |
| Cn1c(CCc2ccc(NC(=O)Nc3cccc(Cl)c3)cc2)nc2ccccc21 [Compound L8] |  | inactive | inactive | 65 |  |
| Cc1cc(OCc2nc3ccccc3[nH]2)ccc1NC(=O)Nc1ccc(Cl)c(Cl)c1 [EZ14, N-[4-(1H-Benzimidazol-2-ylmethoxy)-2-methylphenyl]-N'-(3,4-dichlorophenyl)-urea] |  |  |  |  | IC50 (sEH [3]): 55 nM; IC50 ([2]; Homo sapiens, PMNL, read-out: Effect on 5-LOX product formation in PMNL, IC50): 770 nM |
| CC(C)c1ccc2c(c1)c(SC(C)(C)C)c(CC(C)(C)C(=O)O)n2Cc1ccc(Cl)cc1 [MK886, reference compound] |  |  |  |  | Cell Rec (cell recruitment in the peritoneal cavity) ([4]; 1 mg): 4.54±0.326 10^6/ml; Cell Rec, percent inhibition in respect to the vehicle control ([4]; 1 mg): 41%***; LTB4 ([4]; 1 mg): 258 ± 48 pg/mL; LTB4, percent inhibition in respect to the vehicle control ([4]; 1 mg): 63%**; LTC4 ([4]; 1 mg): 24.2 ± 2.98 ng/mL; LTC4, percent inhibition in respect to the vehicle control ([4]; 1 mg): 73%***; VP (vascular permeability) ([4]; 3 mg): 0.303±0.018 abs 610 nm; VP, percent inhibition in respect to the vehicle control ([4]; 3 mg): 51% |
| Cc1cc(OCc2nc3ccccc3o2)ccc1NC(=O)Nc1ccc(Cl)c(Cl)c1 [SE04, N-[4-(2-Benzoxazolylmethoxy)-2-methylphenyl]-N'-(3,4-dichlorophenyl)-urea] |  |  |  |  | inhibition at 1 µM (sEH [3]): ~87%; inhibition at 1 µM ([2]; Homo sapiens, PMNL): ~85% |
| O=C(Nc1ccc(OCc2nc3ccccc3o2)cc1)Nc1ccc(Cl)c(Cl)c1 [TS04] |  | inactive | inactive |  | inhibition at 1 µM (sEH [3]): ~96% |
| CC(c1cc2ccccc2s1)N(O)C(N)=O (stereo not drawn) [ZIL, zileuton, reference compound] |  |  |  |  | LTC4 ([4]; 10 mg): 56.5 ± 4.58 ng/mL; LTC4, percent inhibition in respect to the vehicle control ([4]; 10 mg): 36%*; VP (vascular permeability) ([4]; 10 mg): 0.639±0.104 abs 610 nm |
